# Assay results as given in the NIST ThermoML archive (doi:10.1016/j.tca.2016.12.010).
# ± gives the expanded uncertainty stated by the source.
# Test: xn = mol fraction of the nth substance listed
# Settings: 94.9 kPa, Liquid, Vibrating tube method
compound,measurement,setting,value
CCCCCCCCO [octan-1-ol] + Cc1ccccc1,mass density,"293.15 K, x1 = 0.1041",859.2 ± 4 kg/m3
same,mass density,"293.15 K, x1 = 0.1973",853.95 ± 4 kg/m3
same,mass density,"293.15 K, x1 = 0.3018",848.87 ± 4 kg/m3
same,mass density,"293.15 K, x1 = 0.4033",844.52 ± 4 kg/m3
same,mass density,"293.15 K, x1 = 0.5035",840.66 ± 4 kg/m3
same,mass density,"293.15 K, x1 = 0.6007",837.23 ± 4 kg/m3
same,mass density,"293.15 K, x1 = 0.6996",834.03 ± 4 kg/m3
same,mass density,"293.15 K, x1 = 0.793",831.2 ± 4 kg/m3
same,mass density,"293.15 K, x1 = 0.9044",828.07 ± 4 kg/m3
same,mass density,"293.15 K, x1 = 1",825.57 ± 4 kg/m3
same,mass density,"298.15 K, x1 = 0.1041",854.47 ± 4 kg/m3
same,mass density,"298.15 K, x1 = 0.1973",849.33 ± 4 kg/m3
same,mass density,"298.15 K, x1 = 0.3018",844.4 ± 4 kg/m3
same,mass density,"298.15 K, x1 = 0.4033",840.2 ± 4 kg/m3
same,mass density,"298.15 K, x1 = 0.5035",836.46 ± 4 kg/m3
same,mass density,"298.15 K, x1 = 0.6007",833.15 ± 4 kg/m3
same,mass density,"298.15 K, x1 = 0.6996",830.05 ± 4 kg/m3
same,mass density,"298.15 K, x1 = 0.793",827.33 ± 4 kg/m3
same,mass density,"298.15 K, x1 = 0.9044",824.31 ± 4 kg/m3
same,mass density,"298.15 K, x1 = 1",821.9 ± 4 kg/m3
same,mass density,"303.15 K, x1 = 0.1041",849.63 ± 4 kg/m3
same,mass density,"303.15 K, x1 = 0.1973",844.59 ± 4 kg/m3
same,mass density,"303.15 K, x1 = 0.3018",839.8 ± 4 kg/m3
same,mass density,"303.15 K, x1 = 0.4033",835.73 ± 4 kg/m3
same,mass density,"303.15 K, x1 = 0.5035",832.13 ± 4 kg/m3
same,mass density,"303.15 K, x1 = 0.6007",828.94 ± 4 kg/m3
same,mass density,"303.15 K, x1 = 0.6996",825.95 ± 4 kg/m3
same,mass density,"303.15 K, x1 = 0.793",823.32 ± 4 kg/m3
same,mass density,"303.15 K, x1 = 0.9044",820.4 ± 4 kg/m3
same,mass density,"303.15 K, x1 = 1",818.08 ± 4 kg/m3
same,mass density,"308.15 K, x1 = 0.1041",844.83 ± 4 kg/m3
same,mass density,"308.15 K, x1 = 0.1973",839.89 ± 4 kg/m3
same,mass density,"308.15 K, x1 = 0.3018",835.26 ± 4 kg/m3
same,mass density,"308.15 K, x1 = 0.4033",831.33 ± 4 kg/m3
same,mass density,"308.15 K, x1 = 0.5035",827.86 ± 4 kg/m3
same,mass density,"308.15 K, x1 = 0.6007",824.78 ± 4 kg/m3
same,mass density,"308.15 K, x1 = 0.6996",821.9 ± 4 kg/m3
same,mass density,"308.15 K, x1 = 0.793",819.36 ± 4 kg/m3
same,mass density,"308.15 K, x1 = 0.9044",816.55 ± 4 kg/m3
same,mass density,"308.15 K, x1 = 1",814.31 ± 4 kg/m3
same,mass density,"313.15 K, x1 = 0.1041",840.03 ± 4 kg/m3
same,mass density,"313.15 K, x1 = 0.1973",835.16 ± 4 kg/m3
same,mass density,"313.15 K, x1 = 0.3018",830.67 ± 4 kg/m3
same,mass density,"313.15 K, x1 = 0.4033",826.9 ± 4 kg/m3
same,mass density,"313.15 K, x1 = 0.5035",823.56 ± 4 kg/m3
same,mass density,"313.15 K, x1 = 0.6007",820.6 ± 4 kg/m3
same,mass density,"313.15 K, x1 = 0.6996",817.82 ± 4 kg/m3
same,mass density,"313.15 K, x1 = 0.793",815.37 ± 4 kg/m3
same,mass density,"313.15 K, x1 = 0.9044",812.65 ± 4 kg/m3
same,mass density,"313.15 K, x1 = 1",811.09 ± 4 kg/m3
same,mass density,"318.15 K, x1 = 0.1041",835.18 ± 4 kg/m3
same,mass density,"318.15 K, x1 = 0.1973",830.43 ± 4 kg/m3
same,mass density,"318.15 K, x1 = 0.3018",826.08 ± 4 kg/m3
same,mass density,"318.15 K, x1 = 0.4033",822.45 ± 4 kg/m3
same,mass density,"318.15 K, x1 = 0.5035",819.25 ± 4 kg/m3
same,mass density,"318.15 K, x1 = 0.6007",816.41 ± 4 kg/m3
same,mass density,"318.15 K, x1 = 0.6996",813.74 ± 4 kg/m3
same,mass density,"318.15 K, x1 = 0.793",811.38 ± 4 kg/m3
same,mass density,"318.15 K, x1 = 0.9044",808.77 ± 4 kg/m3
same,mass density,"318.15 K, x1 = 1",807.7 ± 4 kg/m3
same,mass density,"323.15 K, x1 = 0.1041",831.72 ± 4 kg/m3
same,mass density,"323.15 K, x1 = 0.1973",827.05 ± 4 kg/m3
same,mass density,"323.15 K, x1 = 0.3018",822.76 ± 4 kg/m3
same,mass density,"323.15 K, x1 = 0.4033",819.26 ± 4 kg/m3
same,mass density,"323.15 K, x1 = 0.5035",816.18 ± 4 kg/m3
same,mass density,"323.15 K, x1 = 0.6007",813.46 ± 4 kg/m3
same,mass density,"323.15 K, x1 = 0.6996",810.87 ± 4 kg/m3
same,mass density,"323.15 K, x1 = 0.793",808.58 ± 4 kg/m3
same,mass density,"323.15 K, x1 = 0.9044",806.05 ± 4 kg/m3
same,mass density,"323.15 K, x1 = 1",804.05 ± 4 kg/m3
same,mass density,"333.15 K, x1 = 0.1041",822.45 ± 4 kg/m3
same,mass density,"333.15 K, x1 = 0.1973",817.92 ± 4 kg/m3
same,mass density,"333.15 K, x1 = 0.3018",813.92 ± 4 kg/m3
same,mass density,"333.15 K, x1 = 0.4033",810.68 ± 4 kg/m3
same,mass density,"333.15 K, x1 = 0.5035",807.88 ± 4 kg/m3
same,mass density,"333.15 K, x1 = 0.6007",805.4 ± 4 kg/m3
same,mass density,"333.15 K, x1 = 0.6996",803.05 ± 4 kg/m3
same,mass density,"333.15 K, x1 = 0.793",800.97 ± 4 kg/m3
same,mass density,"333.15 K, x1 = 0.9044",798.68 ± 4 kg/m3
same,mass density,"333.15 K, x1 = 1",796.88 ± 4 kg/m3
